Source: US9302999B2, “Substituted triazoles as herbicides” (E. I. DU PONT DE NEMOURS AND COMPANY, priority 2012, dated 2016)

How the values were obtained:
Type in all cases: in vivo
[1] = test system: common (oilseed) sunflower (Helianthus annuus); experiment: Test C pre-/postemergence: sunflower; conditions: Preemergence
Outline: (§1)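 Preemergence on seeds in loam/sand, postemergence on 2–18 cm (1–4-leaf) plants in peat-based medium; compounds in non-phytotoxic solvent with surfactant. After 13–15 days in greenhouse, visual rating versus controls, 0 (no effect) to 100 (complete control).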

[2] = test system: ducksalad (Heteranthera limosa); experiment: Test B flooded paddy: ducksalad; conditions: Flood; 250 g ai/ha; applied to paddy water at 2-leaf stage; visually evaluated after 13 to 15 days
Outline: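 Flooded-pot test: compound dosed into 3 cm of standing water above soil when plants had two leaves. Visual control ratings (0–100) versus untreated plants after 13–15 d.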

[3] = test system: velvetleaf (Abutilon theophrasti); experiment: Test C pre-/postemergence: velvetleaf
Outline: as §1

[4] = test system: large crabgrass (Digitaria sanguinalis); experiment: Test C pre-/postemergence: large crabgrass
Outline: as §1

[5] = test system: galium (catchweed bedstraw, Galium aparine); experiment: Test D pre-/postemergence: galium
Outline: (§2)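 Pre- and postemergence herbicide screen. Soil for pre: silt loam; post medium: peat moss, vermiculite, wetting agent, starter nutrients. Plant stage at post: 1- to 4-leaf. Readout: visual % control, 14–21 days.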

kochia (Kochia scoparia) = experiment: Test D pre-/postemergence: kochia
Outline: as §2

[6] = test system: field violet (Viola arvensis); experiment: Test D pre-/postemergence: field violet; conditions: Postemergence
Outline: as §2

[7] = test system: ragweed (common ragweed, Ambrosia elation); experiment: Test C pre-/postemergence: ragweed
Outline: as §1

[8] = 125 g ai/ha, scale 0 to 100, 0 no effect, 100 complete control
[9] = Postemergence, 31 g ai/ha, scale 0 to 100 (0 no effect, 100 complete control)
[10] = Postemergence, 62 g ai/ha, scale 0 to 100 (0 no effect, 100 complete control)
[11] = Postemergence, 125 g ai/ha, scale 0 to 100, 0 no effect, 100 complete control
[12] = Postemergence, 250 g ai/ha, scale 0 to 100 (0 no effect, 100 complete control)
[13] = Preemergence, 31 g ai/ha, scale 0 (no effect) to 100 (complete control)
[14] = Preemergence, 62 g ai/ha, scale of 0 to 100, 0 is no effect, 100 is complete control
[15] = Preemergence, 125 g ai/ha, scale 0 to 100, 0 no effect, 100 complete control
[16] = Preemergence, 250 g ai/ha, scale 0 to 100, 0 no effect, 100 complete control
[17] = Postemergence, 16 g ai/ha, scale 0 to 100
[18] = Preemergence, 16 g ai/ha, scale 0 to 100 (0 no effect, 100 complete control)
[19] = Preemergence, 31 g ai/ha, scale 0 to 100 (0 no effect, 100 complete control)
[20] = Preemergence, 62 g ai/ha, scale 0 to 100
[21] = Preemergence, 125 g ai/ha, scale 0 to 100
[22] = Preemergence, 250 g ai/ha, scale 0 to 100

With CCOc1nn(-c2ccc(F)cc2)nc1Cc1ccnc(C(F)F)c1 [Compound 195] the “Plant response rating, Sunflower” value ([1]; 31 g ai/ha, scale 0 (no effect) to 100 (complete control)) was 0, the “Plant response rating, Sunflower” value ([1]; 62 g ai/ha, scale of 0 to 100, 0 is no effect, 100 is complete control) was 15 and the “Plant response rating, Sunflower” value [1, 8] was 15. The “Plant response rating, Sunflower” value ([1]; 250 g ai/ha, scale 0 to 100, 0 no effect, 100 complete control) was 20, the “Plant response rating, Ducksalad (0 to 100 scale, 0 is no effect, 100 is complete control)” value [2] was 100 and the “Plant response rating, Velvetleaf” value [3, 9] was 45. For the same molecule, the “Plant response rating, Velvetleaf” value [3, 10] was 50, the “Plant response rating, Velvetleaf” value [3, 11] was 60 and the “Plant response rating, Velvetleaf” value [3, 12] was 65. For the same molecule, the “Plant response rating, Velvetleaf” value [3, 13] was 10, the “Plant response rating, Velvetleaf” value [3, 14] was 25 and the “Plant response rating, Velvetleaf” value [3, 15] was 55. The “Plant response rating, Velvetleaf” value [3, 16] was 90, the “Plant response rating, Crabgrass, Large” value [4, 9] was 55 and the “Plant response rating, Crabgrass, Large” value [4, 10] was 60. For the same molecule, the “Plant response rating, Crabgrass, Large” value [4, 11] was 90, the “Plant response rating, Crabgrass, Large” value ([4]; Postemergence, 250 g ai/ha, scale 0 to 100) was 95 and the “Plant response rating, Crabgrass, Large” value [4, 13] was 98. The “Plant response rating, Crabgrass, Large” value [4, 14] was 100, the “Plant response rating, Crabgrass, Large” value [4, 15] was 100 and the “Plant response rating, Crabgrass, Large” value [4, 16] was 100. For the same molecule, the “Plant response rating: Galium” value [5, 9] was 30, the “Plant response rating: Galium” value [5, 10] was 50 and the “Plant response rating: Galium” value [5, 11] was 75. The “Plant response rating: Galium” value [5, 12] was 80, the “Plant response rating, Galium” value [5, 17] was 20 and the “Plant response rating, Galium” value [5, 18] was 0. The “Plant response rating, Galium” value [5, 19] was 0, the “Plant response rating, Galium” value [5, 20] was 10 and the “Plant response rating, Galium” value [5, 21] was 30. The “Plant response rating, Galium” value [5, 22] was 80, the “Plant response rating: Kochia” value (kochia (Kochia scoparia); [9]) was 85 and the “Plant response rating: Kochia” value (kochia (Kochia scoparia); [10]) was 95. The “Plant response rating: Kochia” value (kochia (Kochia scoparia); [11]) was 100, the “Plant response rating: Kochia” value (kochia (Kochia scoparia); [12]) was 100 and the “Plant response rating, Kochia” value (kochia (Kochia scoparia); [17]) was 70. For the same molecule, the “Plant response rating, Kochia” value (kochia (Kochia scoparia); [18]) was 40, the “Plant response rating, Kochia” value (kochia (Kochia scoparia); [19]) was 50 and the “Plant response rating, Kochia” value (kochia (Kochia scoparia); [20]) was 60. For the same molecule, the “Plant response rating, Kochia” value (kochia (Kochia scoparia); [21]) was 80, the “Plant response rating, Kochia” value (kochia (Kochia scoparia); [22]) was 85 and the “Plant response rating: Field Violet” value ([6]; 31 g ai/ha, scale 0 to 100 (0 no effect, 100 complete control)) was 70. The “Plant response rating: Field Violet” value ([6]; 62 g ai/ha, scale 0 to 100 (0 no effect, 100 complete control)) was 75, the “Plant response rating: Field Violet” value [6, 8] was 85 and the “Plant response rating: Field Violet” value ([6]; 250 g ai/ha, scale 0 to 100 (0 no effect, 100 complete control)) was 95. The “Plant response rating, Field Violet” value ([6]; 16 g ai/ha, scale 0 to 100) was 70, the “Plant response rating, Ragweed” value [7, 10] was 50 and the “Plant response rating, Ragweed” value [7, 11] was 70. For the same molecule, the “Plant response rating, Ragweed” value [7, 12] was 85, the “Plant response rating, Ragweed” value [7, 13] was 15 and the “Plant response rating, Ragweed” value [7, 14] was 20. The “Plant response rating, Ragweed” value [7, 15] was 20 and the “Plant response rating, Ragweed” value [7, 16] was 55.
